Legend:
MRC5 = experiment: Cytotoxicity against human MRC5 cells after 48 hrs by MTT assay; assay type: cell-based
HT-29 [1] = experiment: Cytotoxicity against human HT-29 cells after 48 hrs by MTT assay; assay type: functional, cell-based
MDA-MB-231 [2] = experiment: Cytotoxicity against human MDA-MB-231 cells after 48 hrs by MTT assay; assay type: functional, cell-based
MCF7 = experiment: Cytotoxicity against human MCF7 cells after 48 hrs by MTT assay; assay type: functional, cell-based
A549 = experiment: Cytotoxicity against human A549 cells after 48 hrs by MTT assay; assay type: functional, cell-based
HeLa = experiment: Cytotoxicity against human HeLa cells after 48 hrs by MTT assay; assay type: functional, cell-based
HT-29 [3] = experiment: Induction of cytotoxic response in human HT-29 cells after 48 hrs by MTT assay; assay type: functional
MDA-MB-231 [4] = experiment: Induction of cytotoxic response in human MDA-MB-231 cells after 48 hrs by MTT assay; assay type: functional

| Compound | IC50 (MRC5; mrc5) | IC50 (HT-29 [1]; ht-29) | IC50 (MDA-MB-231 [2]; mda-mb-231) | IC50 (MCF7; mcf7) | IC50 (A549; a549) | IC50 (HeLa; hela) | Activity (HT-29 [3]) | Activity (MDA-MB-231 [4]) | IC50 (MRC5; Homo sapiens, MRC5, 48 h) | IC50 (HT-29 [1]; Homo sapiens, HT-29, 48 h) | IC50 (MDA-MB-231 [2]; Homo sapiens, MDA-MB-231, 48 h) | IC50 (MCF7; Homo sapiens, MCF7, 48 h) | IC50 (A549; Homo sapiens, A549, 48 h) | IC50 (HeLa; Homo sapiens, HeLa, 48 h) |
| --- | --- | --- | --- | --- | --- | --- | --- | --- | --- | --- | --- | --- | --- | --- |
| C[C@@]1(O)CS[C@@H](n2ccc(N)nc2=O)[C@@H]1O [listing 1 of 2 here] | 147 µM | 6400 µM | 10 µM | 139 µM | 9 µM | 17 µM |  |  |  |  |  |  |  |  |
| Cc1cn([C@@H]2SC[C@@](C)(O)[C@H]2O)c(=O)[nH]c1=O |  |  |  |  |  |  | 62% | 57% | 269 µM | 5 µM | 3 µM | 323 µM | 41 µM | 214 µM |
| Cc1cn([C@H]2SC[C@](C)(O)[C@@H]2O)c(=O)[nH]c1=O |  |  |  |  |  |  |  |  | 290 µM | 640 µM | 52 µM | 172 µM | 30 µM | 6870 µM |
| C[C@@]1(O)CS[C@@H](n2ccc(=O)[nH]c2=O)[C@@H]1O |  |  |  |  |  |  |  |  | 630 µM | 8 µM | 19 µM | 193 µM | 4270 µM | 214 µM |
| C[C@]1(O)CS[C@H](n2ccc(=O)[nH]c2=O)[C@H]1O |  |  |  |  |  |  |  |  | 1000 µM | 269 µM | 14 µM | 100 µM | 30 µM | 4320 µM |
| C[C@]1(O)CS[C@H](n2ccc(N)nc2=O)[C@H]1O |  |  |  |  |  |  |  |  | 221 µM | 5990 µM | 11 µM | 13 µM | 223 µM | 12 µM |
| C[C@@]1(O)CS[C@@H](n2ccc(N)nc2=O)[C@@H]1O [listing 2 of 2 here] | 4340 µM | 2270 µM | 58 µM | 1980 µM | 1320 µM | 106 µM |  |  |  |  |  |  |  |  |
